# In ChEMBL document CHEMBL5653615 (J Biol Chem, 2013):
# Assays:
# [1] = molecular target: Tyrosine-protein kinase Fes/Fps (Homo sapiens) (UniProt P07332); assay: Inhibition of human FES at 500 nM by HotSpot assay relative to control
# [2] = molecular target: Insulin-like growth factor 1 receptor (Homo sapiens, UniProt P08069); assay: Inhibition of inactive form of IGF-1R (unknown origin) kinase domain incubated for 1 hr by [gamma-33P]ATP assay
# [3] = molecular target: Fibroblast growth factor receptor 1 (Homo sapiens) (UniProt P11362); assay: Inhibition of human FGFR1 at 500 nM by HotSpot assay relative to control
# Chain of Fibroblast growth factor receptor 1 (Homo sapiens) (P11362 22-822 limits assumed): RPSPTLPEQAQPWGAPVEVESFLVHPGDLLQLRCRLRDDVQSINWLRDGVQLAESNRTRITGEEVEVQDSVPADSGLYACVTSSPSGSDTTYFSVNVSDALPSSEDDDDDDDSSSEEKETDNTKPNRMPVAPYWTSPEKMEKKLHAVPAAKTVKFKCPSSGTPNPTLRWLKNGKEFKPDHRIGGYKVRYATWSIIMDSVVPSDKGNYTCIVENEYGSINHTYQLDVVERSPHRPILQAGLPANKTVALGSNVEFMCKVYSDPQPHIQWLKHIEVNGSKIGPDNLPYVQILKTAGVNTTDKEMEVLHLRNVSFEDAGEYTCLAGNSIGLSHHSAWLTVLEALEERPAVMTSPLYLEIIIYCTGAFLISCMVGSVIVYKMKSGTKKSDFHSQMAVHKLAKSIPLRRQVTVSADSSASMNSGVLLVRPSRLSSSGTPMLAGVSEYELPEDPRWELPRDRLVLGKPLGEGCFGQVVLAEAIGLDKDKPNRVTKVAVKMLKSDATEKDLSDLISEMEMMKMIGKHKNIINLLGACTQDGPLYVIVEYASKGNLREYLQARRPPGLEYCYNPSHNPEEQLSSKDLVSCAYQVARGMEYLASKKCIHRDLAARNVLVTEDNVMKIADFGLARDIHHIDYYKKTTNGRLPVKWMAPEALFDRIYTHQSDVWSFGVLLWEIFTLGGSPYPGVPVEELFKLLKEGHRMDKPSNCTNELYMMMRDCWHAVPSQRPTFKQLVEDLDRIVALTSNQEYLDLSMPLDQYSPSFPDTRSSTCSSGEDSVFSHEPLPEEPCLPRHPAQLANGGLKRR
# [4] = molecular target: T1, Serine/threonine-protein kinase ULK2 (Homo sapiens) (UniProt Q8IYT8); assay: Inhibition of human ULK2 at 500 nM by HotSpot assay relative to control
# T1 sequence (whole entry): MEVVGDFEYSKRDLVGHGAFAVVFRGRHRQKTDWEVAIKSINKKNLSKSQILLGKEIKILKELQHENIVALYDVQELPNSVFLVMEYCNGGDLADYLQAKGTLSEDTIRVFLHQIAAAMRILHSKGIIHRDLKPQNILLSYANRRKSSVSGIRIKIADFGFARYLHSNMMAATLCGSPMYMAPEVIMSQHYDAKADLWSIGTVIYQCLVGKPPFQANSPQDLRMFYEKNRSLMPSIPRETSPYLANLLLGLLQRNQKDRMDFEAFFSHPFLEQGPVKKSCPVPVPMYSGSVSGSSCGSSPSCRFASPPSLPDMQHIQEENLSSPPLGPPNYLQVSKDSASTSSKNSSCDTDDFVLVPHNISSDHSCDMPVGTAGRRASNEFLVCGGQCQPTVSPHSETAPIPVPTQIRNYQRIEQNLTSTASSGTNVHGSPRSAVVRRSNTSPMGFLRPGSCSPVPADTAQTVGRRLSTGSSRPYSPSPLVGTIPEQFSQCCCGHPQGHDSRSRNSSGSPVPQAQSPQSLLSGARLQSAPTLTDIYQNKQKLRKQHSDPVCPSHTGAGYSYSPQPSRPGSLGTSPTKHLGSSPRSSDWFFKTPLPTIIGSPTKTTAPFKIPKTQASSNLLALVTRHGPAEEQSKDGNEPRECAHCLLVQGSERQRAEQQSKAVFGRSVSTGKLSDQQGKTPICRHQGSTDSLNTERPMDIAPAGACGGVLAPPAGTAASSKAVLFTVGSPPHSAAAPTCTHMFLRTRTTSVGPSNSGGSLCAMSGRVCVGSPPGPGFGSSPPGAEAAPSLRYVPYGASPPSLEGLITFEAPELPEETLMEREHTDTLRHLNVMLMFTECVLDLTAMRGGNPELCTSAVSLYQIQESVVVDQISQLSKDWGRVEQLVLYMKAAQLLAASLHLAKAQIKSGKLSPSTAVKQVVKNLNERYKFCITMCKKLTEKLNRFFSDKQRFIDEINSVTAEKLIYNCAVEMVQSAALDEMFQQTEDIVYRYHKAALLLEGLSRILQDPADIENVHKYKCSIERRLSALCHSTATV
# [5] = molecular target: T2, Activin receptor type-1B (Homo sapiens) (UniProt P36896); assay: Inhibition of human ALK4 at 500 nM by HotSpot assay relative to control
# T2 sequence (whole entry): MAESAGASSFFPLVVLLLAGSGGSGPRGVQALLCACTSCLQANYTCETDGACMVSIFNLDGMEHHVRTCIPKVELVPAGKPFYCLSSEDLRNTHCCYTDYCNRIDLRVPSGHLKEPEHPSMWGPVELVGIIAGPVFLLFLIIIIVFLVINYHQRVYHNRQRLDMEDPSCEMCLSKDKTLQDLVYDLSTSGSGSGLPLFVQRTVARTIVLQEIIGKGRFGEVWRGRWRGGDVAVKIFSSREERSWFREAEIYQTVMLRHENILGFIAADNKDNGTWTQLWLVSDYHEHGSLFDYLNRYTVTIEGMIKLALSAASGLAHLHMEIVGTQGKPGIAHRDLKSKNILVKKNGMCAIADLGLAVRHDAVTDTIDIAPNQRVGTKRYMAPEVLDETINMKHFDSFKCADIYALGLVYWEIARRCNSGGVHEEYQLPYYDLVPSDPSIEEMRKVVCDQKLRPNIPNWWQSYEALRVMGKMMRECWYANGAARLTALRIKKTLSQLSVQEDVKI
# [6] = molecular target: Serine/threonine-protein kinase N1 (Homo sapiens) (UniProt Q16512); assay: Inhibition of human PRK1 at 500 nM by HotSpot assay relative to control
# Chain of Serine/threonine-protein kinase N1 (Homo sapiens) (Q16512 2-942 limits assumed): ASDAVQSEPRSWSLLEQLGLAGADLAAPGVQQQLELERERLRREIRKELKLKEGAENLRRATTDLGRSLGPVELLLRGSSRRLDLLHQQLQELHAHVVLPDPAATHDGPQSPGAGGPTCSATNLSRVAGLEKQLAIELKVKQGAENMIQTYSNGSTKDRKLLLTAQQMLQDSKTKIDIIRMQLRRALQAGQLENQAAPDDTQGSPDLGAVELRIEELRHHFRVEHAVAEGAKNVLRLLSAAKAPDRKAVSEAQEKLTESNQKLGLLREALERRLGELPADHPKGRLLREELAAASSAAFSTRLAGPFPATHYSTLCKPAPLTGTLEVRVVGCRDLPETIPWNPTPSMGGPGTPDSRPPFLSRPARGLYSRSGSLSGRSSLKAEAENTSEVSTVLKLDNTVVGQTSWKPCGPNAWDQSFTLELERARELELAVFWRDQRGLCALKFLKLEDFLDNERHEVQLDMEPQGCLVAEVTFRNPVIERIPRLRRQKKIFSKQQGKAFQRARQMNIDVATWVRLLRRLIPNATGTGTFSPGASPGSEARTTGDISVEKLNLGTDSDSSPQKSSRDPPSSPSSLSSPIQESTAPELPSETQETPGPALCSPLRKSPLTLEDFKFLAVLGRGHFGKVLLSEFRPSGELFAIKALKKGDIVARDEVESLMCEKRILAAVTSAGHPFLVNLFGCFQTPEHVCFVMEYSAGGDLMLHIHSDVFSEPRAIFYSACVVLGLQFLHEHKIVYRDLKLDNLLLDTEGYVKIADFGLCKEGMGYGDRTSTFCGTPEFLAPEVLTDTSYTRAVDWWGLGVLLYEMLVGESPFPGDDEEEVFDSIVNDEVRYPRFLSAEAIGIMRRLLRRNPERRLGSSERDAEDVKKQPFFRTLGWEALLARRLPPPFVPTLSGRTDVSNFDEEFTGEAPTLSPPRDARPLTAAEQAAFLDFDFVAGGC
# [7] = molecular target: T3, Testis-specific serine/threonine-protein kinase 1 (Homo sapiens) (UniProt Q9BXA7); assay: Inhibition of human TSSK1 at 500 nM by HotSpot assay relative to control
# T3 sequence (whole entry): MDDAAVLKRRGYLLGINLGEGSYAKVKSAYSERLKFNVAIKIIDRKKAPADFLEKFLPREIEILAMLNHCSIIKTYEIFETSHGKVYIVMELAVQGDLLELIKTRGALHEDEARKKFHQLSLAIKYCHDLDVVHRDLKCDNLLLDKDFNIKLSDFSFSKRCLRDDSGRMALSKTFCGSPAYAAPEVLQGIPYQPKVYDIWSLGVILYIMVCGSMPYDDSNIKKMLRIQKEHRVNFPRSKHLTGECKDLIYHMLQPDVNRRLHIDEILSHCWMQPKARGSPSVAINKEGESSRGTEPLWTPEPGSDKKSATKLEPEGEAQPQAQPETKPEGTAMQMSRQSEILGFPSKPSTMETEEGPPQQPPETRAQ
# [8] = molecular target: Proto-oncogene tyrosine-protein kinase receptor Ret (Homo sapiens) (UniProt P07949); assay: Inhibition of human RET at 500 nM by HotSpot assay relative to control
# Chain of Proto-oncogene tyrosine-protein kinase receptor Ret (Homo sapiens) (P07949 whole entry): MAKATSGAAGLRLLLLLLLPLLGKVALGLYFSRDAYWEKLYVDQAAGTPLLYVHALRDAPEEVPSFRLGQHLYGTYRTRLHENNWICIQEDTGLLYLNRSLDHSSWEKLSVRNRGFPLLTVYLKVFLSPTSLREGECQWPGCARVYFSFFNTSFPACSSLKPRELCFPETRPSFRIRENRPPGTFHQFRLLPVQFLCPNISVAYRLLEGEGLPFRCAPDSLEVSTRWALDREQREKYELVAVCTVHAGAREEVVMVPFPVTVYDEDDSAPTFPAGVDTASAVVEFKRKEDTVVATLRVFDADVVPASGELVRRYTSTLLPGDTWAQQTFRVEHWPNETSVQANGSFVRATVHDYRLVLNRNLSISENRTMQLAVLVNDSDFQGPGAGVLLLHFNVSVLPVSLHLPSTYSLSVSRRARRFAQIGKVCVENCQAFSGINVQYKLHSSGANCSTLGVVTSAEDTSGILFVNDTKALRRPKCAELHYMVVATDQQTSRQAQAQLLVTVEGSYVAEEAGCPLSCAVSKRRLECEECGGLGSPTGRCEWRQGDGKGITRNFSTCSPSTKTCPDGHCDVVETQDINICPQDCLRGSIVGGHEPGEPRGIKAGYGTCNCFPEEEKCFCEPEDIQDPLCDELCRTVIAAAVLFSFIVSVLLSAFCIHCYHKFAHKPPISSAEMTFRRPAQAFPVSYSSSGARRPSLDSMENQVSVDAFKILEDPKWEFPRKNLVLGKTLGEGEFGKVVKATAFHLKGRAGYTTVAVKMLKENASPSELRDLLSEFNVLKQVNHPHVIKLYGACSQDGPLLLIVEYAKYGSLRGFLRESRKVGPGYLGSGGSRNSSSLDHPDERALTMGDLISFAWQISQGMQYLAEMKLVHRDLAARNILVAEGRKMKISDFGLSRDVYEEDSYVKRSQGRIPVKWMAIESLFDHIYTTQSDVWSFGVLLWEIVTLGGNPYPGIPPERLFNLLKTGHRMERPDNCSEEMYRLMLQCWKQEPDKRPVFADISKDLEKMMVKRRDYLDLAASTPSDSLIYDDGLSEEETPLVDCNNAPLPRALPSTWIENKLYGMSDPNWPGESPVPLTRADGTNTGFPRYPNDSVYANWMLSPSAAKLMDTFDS
# [9] = molecular target: T4, Dual specificity tyrosine-phosphorylation-regulated kinase 3 (Homo sapiens) (UniProt O43781); assay: Inhibition of human DYRK3 at 500 nM by HotSpot assay relative to control
# T4 sequence (whole entry): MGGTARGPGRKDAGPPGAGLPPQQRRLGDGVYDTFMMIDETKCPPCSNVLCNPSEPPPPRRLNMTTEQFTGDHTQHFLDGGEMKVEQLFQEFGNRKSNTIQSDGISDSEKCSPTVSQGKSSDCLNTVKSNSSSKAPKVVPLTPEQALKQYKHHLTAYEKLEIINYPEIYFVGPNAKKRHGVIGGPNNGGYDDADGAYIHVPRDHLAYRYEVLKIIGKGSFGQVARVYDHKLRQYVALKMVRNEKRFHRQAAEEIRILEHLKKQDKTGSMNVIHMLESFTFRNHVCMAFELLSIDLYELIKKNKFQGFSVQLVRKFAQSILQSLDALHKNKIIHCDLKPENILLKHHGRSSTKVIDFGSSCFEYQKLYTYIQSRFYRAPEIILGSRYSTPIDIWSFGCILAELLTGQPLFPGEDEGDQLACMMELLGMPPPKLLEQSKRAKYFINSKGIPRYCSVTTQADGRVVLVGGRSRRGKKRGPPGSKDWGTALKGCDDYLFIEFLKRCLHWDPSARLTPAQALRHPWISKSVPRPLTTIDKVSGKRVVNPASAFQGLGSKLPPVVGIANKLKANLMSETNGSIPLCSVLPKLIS
# Chain of Insulin-like growth factor 1 receptor (P08069 31-736 limits assumed): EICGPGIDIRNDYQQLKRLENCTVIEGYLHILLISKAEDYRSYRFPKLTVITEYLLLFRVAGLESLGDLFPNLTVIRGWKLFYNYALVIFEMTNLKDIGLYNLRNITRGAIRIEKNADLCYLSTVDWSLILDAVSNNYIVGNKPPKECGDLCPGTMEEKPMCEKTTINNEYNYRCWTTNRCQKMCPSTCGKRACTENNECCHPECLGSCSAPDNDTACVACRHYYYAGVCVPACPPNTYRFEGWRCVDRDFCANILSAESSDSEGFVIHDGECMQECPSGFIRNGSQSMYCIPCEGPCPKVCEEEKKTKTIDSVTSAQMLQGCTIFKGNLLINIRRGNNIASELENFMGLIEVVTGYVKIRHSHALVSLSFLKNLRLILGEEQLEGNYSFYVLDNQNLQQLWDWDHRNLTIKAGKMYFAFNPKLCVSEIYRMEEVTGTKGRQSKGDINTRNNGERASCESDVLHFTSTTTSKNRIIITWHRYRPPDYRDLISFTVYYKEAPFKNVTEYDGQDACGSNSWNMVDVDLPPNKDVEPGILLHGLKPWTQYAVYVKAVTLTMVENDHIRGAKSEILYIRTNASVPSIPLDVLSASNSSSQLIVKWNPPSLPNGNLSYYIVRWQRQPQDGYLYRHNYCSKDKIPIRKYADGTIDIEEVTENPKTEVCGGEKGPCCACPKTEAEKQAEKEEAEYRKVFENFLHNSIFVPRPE
# Chain of Insulin-like growth factor 1 receptor (P08069 741-1367 limits assumed): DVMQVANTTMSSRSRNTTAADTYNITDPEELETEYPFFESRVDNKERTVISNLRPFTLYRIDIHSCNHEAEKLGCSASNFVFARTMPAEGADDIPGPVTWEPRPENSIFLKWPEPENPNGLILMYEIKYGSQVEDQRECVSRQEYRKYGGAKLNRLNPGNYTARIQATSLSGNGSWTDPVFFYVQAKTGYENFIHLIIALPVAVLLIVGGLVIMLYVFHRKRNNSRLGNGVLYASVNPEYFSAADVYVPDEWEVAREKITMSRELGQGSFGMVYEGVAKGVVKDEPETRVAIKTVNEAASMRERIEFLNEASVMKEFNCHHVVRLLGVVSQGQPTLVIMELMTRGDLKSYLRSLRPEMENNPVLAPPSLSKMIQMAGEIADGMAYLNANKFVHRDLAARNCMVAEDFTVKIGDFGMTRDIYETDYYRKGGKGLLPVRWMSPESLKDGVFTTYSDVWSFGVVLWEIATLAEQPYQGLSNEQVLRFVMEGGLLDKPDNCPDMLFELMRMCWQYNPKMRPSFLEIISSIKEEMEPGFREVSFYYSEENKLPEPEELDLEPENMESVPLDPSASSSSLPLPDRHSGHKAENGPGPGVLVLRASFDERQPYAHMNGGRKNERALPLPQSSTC
# Chain of Tyrosine-protein kinase Fes/Fps (Homo sapiens) (P07332 whole entry, the tested form may be a part): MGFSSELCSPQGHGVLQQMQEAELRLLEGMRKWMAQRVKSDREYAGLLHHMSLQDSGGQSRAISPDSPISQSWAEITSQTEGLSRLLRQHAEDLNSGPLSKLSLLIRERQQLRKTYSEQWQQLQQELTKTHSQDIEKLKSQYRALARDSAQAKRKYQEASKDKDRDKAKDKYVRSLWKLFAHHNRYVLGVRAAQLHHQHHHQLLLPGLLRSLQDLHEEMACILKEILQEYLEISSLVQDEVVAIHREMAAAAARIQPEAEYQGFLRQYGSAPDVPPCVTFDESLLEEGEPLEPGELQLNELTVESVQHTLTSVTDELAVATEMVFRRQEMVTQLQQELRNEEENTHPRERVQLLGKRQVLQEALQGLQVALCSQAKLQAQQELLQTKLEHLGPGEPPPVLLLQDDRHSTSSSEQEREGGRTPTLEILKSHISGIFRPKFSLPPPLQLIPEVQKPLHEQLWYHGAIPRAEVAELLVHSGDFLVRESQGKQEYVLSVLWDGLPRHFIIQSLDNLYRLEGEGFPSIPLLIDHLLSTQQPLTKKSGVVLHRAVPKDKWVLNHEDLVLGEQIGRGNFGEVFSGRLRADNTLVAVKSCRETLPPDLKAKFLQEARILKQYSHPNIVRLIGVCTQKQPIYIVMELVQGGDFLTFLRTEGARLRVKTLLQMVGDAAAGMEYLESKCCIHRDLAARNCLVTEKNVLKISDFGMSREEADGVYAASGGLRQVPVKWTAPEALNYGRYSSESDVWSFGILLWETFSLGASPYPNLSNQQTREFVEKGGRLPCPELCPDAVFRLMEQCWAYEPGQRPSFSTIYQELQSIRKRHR
SMILES,inhibition [1],IC50 [2],inhibition [3],inhibition [4],inhibition [5],inhibition [6],inhibition [7],inhibition [8],inhibition [9]
Nc1n[nH]c2nnc(-c3c(-c4ccccc4)nn4ccccc34)cc12,2.16%,32.5 µM,5.28%,0.02%,-6.71%,1.8%,-1.56%,6.33%,0.17%
Oc1n[nH]c2nnc(-c3c(-c4ccccc4)nn4ccccc34)cc12,0.31%,10.2 µM,-1.96%,0.86%,0.15%,-0.85%,-0.04%,-3.97%,1.62%
